Source: patent US8404747B2, “Compositions and methods for modulating interaction between polypeptides” (The General Hospital Corporation, priority 2004, dated 2013)
Entries after “also recorded” stand apart in the source; their conditions may differ.

Assays:
[1] = molecular target: T1, Recombinant HD Q51 polypeptide (Homo sapiens, UniProt P42858, INS38QQQQQQQQQQQQQQQQQQQQQQQQQQQQQQ); assay: cell-free trap assay of purified polyQ; format: biochemical; conditions: cell-free; up to 100 mM
T1 construct: made in house
Procedure: To determine whether C2 could directly interfere with polyQ aggregation, we reproduced this process in vitro and assayed the inhibitory effects of the compounds in a cell-free trap assay. Recombinant HD Q51 polypeptide, purified from bacteria, was incubated in the presence or in the absence of C2 for a time sufficient to allow aggregation. Then, upon heat-denaturation in SDS buffer, samples were filtered through a cellulose acetate membrane. Harsh denaturation conditions separated unaggregated soluble peptides, which passed through the membrane, and insoluble aggregates, which were retained on the membrane. The polyQ aggregates trapped on the membrane were subsequently immunostained and quantified.
Congo Red, which is structurally unrelated to C2-8, was used as a control.

Cos1 cells = assay: toxicity for Cos1 cells; format: cell-based
Procedure: The inhibitory activity we observed with C1-C4 in the PC12 cell model described above was confirmed in Cos1 cells transiently transfected with a CMV promoter-based DNA construct that encodes an Htt exon I fragment of Huntington's disease protein (Htt)) having 51 consecutive glutamine residues (HD Q51). When expressed in Cos1 cells, HD 51Q polypeptides readily form aggregates. Transfected Cos1 cells were incubated with C1-C4 compounds in culture medium and lysed. The lysates were then heat-denatured in SDS and passed through a cellulose acetate membrane, which captures aggregated, but not soluble polypeptides. Polyglutamine aggregates trapped on membranes were detected by immunostaining with antibody specific to extended polyQ. Pre-incubation of cells with compounds C1, C3, and C4 decreased the amount of retained polyQ, indicating inhibitory effects on polyQ aggregation. The IC50 for compound C1 was 10 μM and the IC50 for compounds C3 and C4 was 5 μM. As C2 was toxic for Cos1 cells, its effect on aggregation was not determined.

[2] = test system: aggregation of 103Q in PC12 cells; assay: polyQ (103Q) aggregation in ecdyson-inducible PC12 cells; format: cell-based, rat
Procedure: (§1) To study the inhibitors we identified using the yeast screen in mammalian cells, we employed ecdyson-inducible rat phaeochromocytoma (PC12) cells. Compounds were tested in two clones, 14A2/5 and 14A2/6, with highest aggregation rate. We incubated undifferentiated PC12 cells with muristerone A to induce 103Q expression, and we exposed the cells to compounds at concentrations ranging from 1 to 10 μM. […] All compounds were non-toxic except C2, which was toxic at concentrations higher than 5 μM.
We tested these analogs at concentrations ranging from 0.025 μM to 5.0 μM for their effects on polyQ aggregation in PC12 cells. Among 24 analogs of C1; 28 analogs of C2; 24 analogs of C3, and 53 analogs of C4, we identified several potent inhibitors of polyQ aggregation. From our C2 focus library, we isolated compound C2-8 (B2 in Table 2), which inhibits polyQ aggregation with an IC50 value 50 nM. We also identified C2-10 (B6 in Table 2) and C2-11 (M16 (formula V(n)) in Table 5), and B7, B8 and B9 in Table 2. From our C3 focus library, we isolated compound C3-5 (M22 (formula V(t)) in Table 5) (having an IC50 value of 100 nM) and compound C3-6 (M17 (formula V(o)) in Table 5) (having an IC50 value of 5 μM). From our C4 library, we isolated compound C4-7 (A31 in Table 1), which has an IC50 value 100 nM. We also identified C4-34 (A3 in Table 1).

PC12 cells = assay: toxicity in PC12 cells; format: cell-based, rat
Procedure: as §1
In the C1 library, no inhibitors of polyQ aggregation with high potency were found.

p53 protein = assay: levels of endogenous p53 protein in PC12 cells; format: cell-based, rat
Procedure: The protein levels of Htt fragments containing 103Q in PC12 cells were not affected by incubation with compounds at the concentrations tested. Furthermore, proteolytic capacity of cells treated with compound C2 appeared to be normal, since levels of a highly unstable endogenous p53 protein in PC12 cells were not changed.

HDAc = HDAc activity; format: biochemical
[3] = test system: striatum of 11Q/111Q cells and PC12 cells; assay: transcriptional activation or repression in striatum 111Q cells and PC12 cells; format: cell-based
Excerpt: Biochemical activity associated with C9-2 is not well understood. […] Future studies include testing the compound for anti-apoptotic activity, and transcriptional profiling using a striatum cell line derived from a double knock-out mutant htt mouse. The C9-2 analogs C9-2B (A30 in Table 1) and C9-2A (control) (A29 in Table 1) are being tested for an effect on photoreceptor neurodegeneration in the Drosophila HD model.

DNA = DNA binding activity
[4] = test system: SP1 trancription factor binding motif (6XSP1) promoter; assay: 6XSP1 luciferase transcription-based assay in 111Q/111Q striatum double knock-in cells; format: cell-based, mouse; conditions: 6XSP1 luciferase reporter; CG4 among CG series, less potent than C9-4
Procedure: FIGS. 1A-1C. FIG. 1A is a bar graph showing luciferase expression in Sp1-luc/111Q striatum double knock-in cells following treatment with different compounds, as indicated. Fluorescence was measured 24 hours after addition of compound. FIG. 1B is a bar graph as described in FIG. 1A. Fluorescence was measured 48 hours after addition of compound. FIG. 1C is a bar graph as described in FIG. 1A. Fluorescence was measured 72 hours after addition of compound.
We conducted structure activity relationship (SAR) studies to optimize transcription activation. We developed a novel transcription-based assay for this purpose. A luciferase reporter gene was stably integrated into 111Q/111Q striatum double knock-in cells and constitutively expressed under control of a promoter containing six copies of the SP1 trancription factor binding motif (6XSP1). In this system, C9 was determined to have an EC200 of 7.5 μM.

photoreceptor neurons = assay: Drosophila HD photoreceptor neurodegeneration model; format: in vivo
Excerpt: A variety of animal models of Huntington disease have been developed. Examination of the degeneration of photoreceptor neurons facilitated by extended polyQ expression is one such model (Jackson et al., Neuron 21:633-642, 1998).
We used the photoreceptor model in Drosophila to test a variety of different compounds, including naphthylamine derivatives, for an effect on neurodegeneration. […] C9-2 is 2-(3-methoxypropyl)-1H-benzo[de]isoquinoline-1,3(2H)-dione.

[5] = test system: polyQ-containing polypeptides; assay: aggregation of polyQ-containing polypeptides, assay not specified
htt103Q-EGFP = assay: PC12 htt103Q-EGFP fluorescence assay; format: cell-based; conditions: PC12 cells
Excerpt: A PC12 cell line was engineered to express extended polyQ under the control of an ecdysone-inducible promoter. In the assay cell line, an N-terminal fragment of htt containing an extended polyQ tract was stably expressed as a fusion with EGFP (htt103Q-EGFP), from the pIND vector. Expression of extended polyQ in these cells was controlled by addition of an ecdysone analog, in this case muristerone A. In this assay, EGFP fluorescence directly correlated with htt103Q-EGFP expression levels. This system was designed to assess the effects of specific compounds on overall levels of extended polyglutamines in cells, using a simple fluorescent-based read-out.

proteasomal dysfunction = proteasomal dysfunction in PC12 cells expressing extended polyQ; format: cell-based
[6] = test system: mutant Huntingtin transgene (htt); assay: transgene (mutant htt, extended polyQ) expression in inducible PC12 cells; format: cell-based, rat; conditions: 2.5 μM
Excerpt: The compound C9 (A33 in Table 1) has structural similarity to the histone deacetylase (HDAc) inhibitor, scriptaid (6-(1,3-Dioxo-1H,3H-benzo[de]isoquinolin-2-yl)-N-hydroxyhexanamide) (Su et al., Cancer Res. 60:3137, 2000; A5 in Table 1). We observed the most dramatic effect on expression level by C9 and scriptaid in the PC12 cell line 14A2/6 expressing the extended polyQ mutant htt(104Q). The effect of C9 on the down-regulation of polyQ expression, was similar to cystamine, a drug that has shown efficacy in a mouse model for Huntington's Disease (HD). […] 14A2/6 cells were at least 5-fold more responsive to chemical treatment than other cell lines tested.
Transcriptional dysregulation is a hallmark of HD. […] Expression of the polypeptide was under control of an inducible ecdysone receptor (EcR)-based promoter.

flies = assay: toxicity to flies; design: species or system Drosophila; conditions: in vivo
Excerpt: Scriptaid was toxic to flies.

T1 sequence (P42858 with tags, fused parts or gaps with the stated changes): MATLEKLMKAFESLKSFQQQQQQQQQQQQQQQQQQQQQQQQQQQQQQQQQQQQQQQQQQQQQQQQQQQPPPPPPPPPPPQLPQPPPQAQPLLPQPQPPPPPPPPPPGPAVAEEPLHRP

With `O=C(Nc1ccc(Br)cc1)c1ccc(Br)c(S(=O)(=O)NC2CCCCC2)c1` [Compound C2, 4-Bromo-N-(4-bromo-phenyl)-3-cyclohexylsulfamoyl-benzamide] the “aggregation of pure polyglutamines in vitro” value [1] was “failed to block aggregation”, the “toxicity for Cos1 cells” value (Cos1 cells) was “toxic” and the IC50 ([2]; Rattus norvegicus, PC-12, PC12 clones 14A2/5 and 14A2/6, muristerone A induced, 1 to 10 μM, read-out: IC50, aggregation of 103Q) was 5 µM. For the same compound, the toxic concentrations (PC12 cells; PC12 cells) was “higher than 5 μM” and the “levels of endogenous p53 protein” value (p53 protein) was “not changed”.
`COCCCN1C(=O)c2cccc3cccc(c23)C1=O` [Compound C9-2, 2-(3-Methoxy-propyl)-benzo[de]isoquinoline-1,3-dione] was tested, and the “direct inhibition of HDAc activity” value (HDAc) was “does not appear to inhibit”, the “transcriptional activation or repression” value [3] was “no transcriptional activation or repression” and the DNA binding activity (DNA) was “nor has DNA binding activity been detected”. The transcription activation [4] was “did not effectively activate transcription”, the “neurodegeneration of photoreceptor neurons” value (photoreceptor neurons) was “dramatic neuroprotection” and the effect on aggregation [5] was “does not appear to suppress aggregation; also recorded: facilitate protein-protein aggregation”.
`CCOC(=O)c1c(NC(=O)Cc2ccc(OC)cc2)sc(C(=O)Nc2ccccc2OC)c1C` [Compound D1, 2-[2-(4-Methoxy-phenyl)-acetylamino]-5-(2-methoxy-phenylcarbamoyl)-4-methyl-thiophene-3-carboxylic acid ethyl ester] was tested, and the “effect on protein aggregation” value (htt103Q-EGFP) was “facilitators of protein aggregation” and the proteasomal dysfunction phenotype (proteasomal dysfunction) was “relieved this phenotype”.
For `CCOC(=O)c1c(NC(=O)c2ccccc2C)sc(C(=O)Nc2ccccc2OC)c1C` [Compound D2, 5-(2-Methoxy-phenylcarbamoyl)-4-methyl-2-(2-methyl-benzoylamino)-thiophene-3-carboxylic acid ethyl ester], the “effect on protein aggregation” value (htt103Q-EGFP) was “facilitators of protein aggregation” and the proteasomal dysfunction phenotype (proteasomal dysfunction) was “relieved this phenotype”.
`O=C(CCCCCN1C(=O)c2cccc3cccc(c23)C1=O)NO` [Scriptaid, 6-(1,3-Dioxo-1H,3H-benzo[de]isoquinolin-2-yl)-hexanoic acid hydroxyamide, reference compound] was tested, and the expression of transgene ([6]; 14A2/6 cells) was “dramatic overexpression”, the expression of transgene ([6]; other cell lines) was “modestly stimulated” and the toxicity to flies (flies) was “toxic”. The cells with aggregation ([2]; 14A2/6 cells, 2.5 μM) was 100% and the cell viability (PC12 cells; 14A2/6 cells, 2.5 μM) was “cell death”.
